Measured values reported in US20230183323A1 (BROWN UNIVERSITY, priority 2020, published 2023).

System: pseudovirus containing S protein mutations D614G, E484K, United Kingdom, South African, Brazilian
Type: cell-based, SARS-CoV-2

rhCHI3L1: recombinant human CHI3L1 from a commercial source (R&D Inc.) or generated at Brown University
cellular integration of Spike proteins of SARS-Cov2 (% of GFP positive cells, FACS): stimulated
